Measured values: patent publication US7368279B2, “Three dimensional bioengineered smooth muscle tissue and sphincters and methods therefor” (The Regents of The University of Michigan, priority 2004, dated 2008)

Tests used:
[1] = test system: association of actin with myosin in sphincteric smooth muscle cells; test: Immunoprecipitation/immunoblot: acetylcholine-induced association of actin with myosin; type: cell-based, rat; settings: 0.1 μM acetylcholine
Method: Decreased association of actin with myosin and decreased association of tropomyosin with HSP27 in sphincteric smooth muscle cells from old rats (28-33 month old) was observed when compared to adult counterparts (18 months old). Whole cell lysates (WCL) from acetylcholine (0.1 μM) stimulated and unstimulated sphincteric smooth muscle cells of adult and old rats were extracted and immunoprecipitated as described previously (Somara et al, Amer. J. Physiol. 286(6): C1290-1301, 2004). Briefly, actin was immunoprecipited using an anti-actin antibody followed by immunoblotting with an anti-myosin antibody. […] To further investigate phospho-HSP27-induced reinstatement of smooth muscle cell contractile function, sphincter smooth muscle cells isolated from old rats IAS were transfected with phosphomimic-HSP27 as described previously. Whole cells lysates were extracted and immunoprecipitated as described previously (Somara et al, Amer. J. Physiol. 286(6): C1290-1301, 2004).

bioengineered IAS rings = test: Isometric force (contraction/relaxation) of bioengineered IAS rings; type: cell-based, rabbit
Method: Excitability and contractility of bioengineered IAS rings was measured using techniques adapted from previous work (Dennis et al., In Vitro Cellular & Developmental Biology Animal 36: 327-335, 2000. Dennis et al., American Journal of Physiology Cell Physiology 280: C288-C295, 2001). The diameter of the sphincter rings was measured and used to calculate cross-sectional area (CSA). The bioengineered sphincters were separated from their molds using forceps (FIG. 1 Panel E) and the minimum ring diameter was measured using a calibrated eyepiece and a 5× or 10× objective lens on an inverted microscope (Zeiss Axiovert 25, Thornwood, N.Y.). The cross section was circular, and therefore the CSA was calculated using the measured diameter. To measure the passive baseline force, the differentiation media in the plate containing the bioengineered sphincter was replaced with 37° C. Krebs solution (NaCl (119 mM), KCl (4.6 mM), NaHCO3 (15 mM), CaCl2 (1.5 mM), MgCl2 (1.2 mM), […], and glucose (11 mM)) and the plate was placed on a heated aluminum platform, which maintained a temperature of 37° C. until the testing was complete. For contractility measurements, one end of the bioengineered sphincter was anchored by a stainless steel pin (10 mm×0.1 mm diameter) to the PDMS substrate within the plate, while another stainless steel pin was bent in the shape of a hook and attached by canning wax to a force transducer (resolution of 1.4 μN and range of 2mN) as previously described (Dennis et al., In Vitro Cellular & Developmental Biology Animal 36: 327-335, 2000, Macpherson et al., J Physiol 500: 523-533, 1997) and as depicted in FIG. 1 (Panels F and G). The bioengineered sphincter was stretched approximately 50% of its resting length using a three-axis micromanipulator. The ring was allowed to sit for 20 minutes in order to reestablish a stable baseline level of force (Pb), which was measured as the average baseline passive force preceding stimulation. All force measurements were collected at 100 samples/second for 60 seconds and recorded using a computer with LabVIEW data acquisition software (National Instruments, Austin, Tex.). A median filter of rank 2 was applied to all raw force data before being stored to minimize digitization noise without causing a phase delay for rapidly changing forces. The peak isometric force (ΔP) was determined by subtracting the Pb from the total force values. Specific force (sΔP) was calculated by dividing ΔP by the CSA. Data analysis was done using LabVIEW and Microsoft Excel software programs. Each measurement was repeated at least three times and the mean value was recorded. Contractions were induced in the rings by the addition of acetylcholine. Dose-response relationships of acetylcholine were investigated in the range of 10^−6M to 10^−10M. Incremental doses of acetylcholine were added after the maximal response of the preceding concentration and the establishment of a new baseline. Relaxation response in the rings was induced by the addition of 8-Bromoadenosine 3′:5′-Cyclic Monophosphate (8-br-cAMP). Maximal relaxation was achieved after approximately 4 minutes and therefore relaxation measurements are collective of four consecutive 1-minute data recordings.

rat IAS cells = test: Acetylcholine-induced contraction of isolated sphincteric smooth muscle cells of adult and old rats; type: cell-based; settings: for cell population with less than 80 μM cell length: 30 second stimulation
Method: To determine the effect of acetylcholine on contraction of isolated muscle cells, acetylcholine (10^−7 M) was added to a suspension of isolated smooth muscle cells for 30 seconds or 4 minutes with untreated cells as controls. The reaction was stopped and cells were fixed by the addition of 0.1 ml of acrolein at a final concentration of 0.1%. Individual cell lengths were measured by computerized image micrometry (Bitar et al., Am J Physiol 242: G400-G407, 1982. Bitar et al., Science 216: 531-533, 1982). The length of cells in the control state or after addition of acetylcholine was obtained by measuring 30-50 cells encountered randomly in successive microscopic fields from each of three separate experiments. The contractile response is defined as the decrease in the average length of the cells counted and is expressed as the percent change from the control length. Acetylcholine-induced contraction of isolated sphincteric smooth muscle cells was defined as the percent decrease in cell length compared to control. […] In old rats, 10^−7M acetylcholine-induced contraction at 30 seconds was approximately 3-fold less forceful (12.8±4.4%) than adult rat cells. […] In addition, after acetylcholine-induced contraction, there was a preponderance of longer cells and in old rats (24% above 80 μm) when compared to adult counterparts (17% above 80).

CC(=O)OCC[N+](C)(C)C [acetylcholine]
acetylcholine-induced association of actin with myosin ([1]; adult rats, 30 seconds): 243.70±8.20% | acetylcholine-induced association of actin with myosin ([1]; adult rats, 4 minutes): 274.34±10.43% | acetylcholine-induced association of actin with myosin ([1]; old rats, 30 sec): 175.32±10.12% | acetylcholine-induced association of actin with myosin ([1]; old rats, 4 minutes): 231.79±10.45% | concentration at which the concentration-dependent contractile response reaches a plateau (bioengineered IAS rings; 10-fold incremental doses 10^−10 M to 10^−6 M): 10^−7 M | peak isometric force ΔP (bioengineered IAS rings; 10^−7 M acetylcholine, Krebs buffer, sustained for 4 minutes): 9.8±3.8 μN | maximal ΔP induced by acetylcholine stimulation (bioengineered IAS rings; Krebs buffer): 33.7 μN | fold less forceful contraction in old than adult rat cells (rat IAS cells; 10^−7 M acetylcholine, 30 seconds): approximately 3 fold | contraction, percent decrease in cell length compared to control (rat IAS cells; adult rat IAS cells, 10^−7 M acetylcholine, 30 seconds): 44.7±1.34% | contraction, percent decrease in cell length compared to control (rat IAS cells; adult rat IAS cells, 10^−7 M acetylcholine, 4 minutes): 40.65±1.43% | cell population with less than 80 μM cell length (rat IAS cells; adult rat IAS cells, 10^−7 M acetylcholine): 89% | longer cells above 80 after acetylcholine-induced contraction (rat IAS cells; adult rats): 17% | contraction, percent decrease in cell length compared to control (rat IAS cells; old rat IAS cells, 10^−7 M acetylcholine, 30 seconds): 12.8±4.4% | contraction, percent decrease in cell length compared to control (rat IAS cells; old rat IAS cells, 10^−7 M acetylcholine, 4 minutes): 16.99±6.07% | cell population with less than 80 μM cell length (rat IAS cells; old rat IAS cells, 10^−7 M acetylcholine): 71% | longer cells above 80 μm after acetylcholine-induced contraction (rat IAS cells; old rats): 24%
